In assay [1] the target is T1, Short transient receptor potential channel 4 (Mus musculus, UniProt Q9QUQ5).
T1 sequence (Q9QUQ5 whole entry): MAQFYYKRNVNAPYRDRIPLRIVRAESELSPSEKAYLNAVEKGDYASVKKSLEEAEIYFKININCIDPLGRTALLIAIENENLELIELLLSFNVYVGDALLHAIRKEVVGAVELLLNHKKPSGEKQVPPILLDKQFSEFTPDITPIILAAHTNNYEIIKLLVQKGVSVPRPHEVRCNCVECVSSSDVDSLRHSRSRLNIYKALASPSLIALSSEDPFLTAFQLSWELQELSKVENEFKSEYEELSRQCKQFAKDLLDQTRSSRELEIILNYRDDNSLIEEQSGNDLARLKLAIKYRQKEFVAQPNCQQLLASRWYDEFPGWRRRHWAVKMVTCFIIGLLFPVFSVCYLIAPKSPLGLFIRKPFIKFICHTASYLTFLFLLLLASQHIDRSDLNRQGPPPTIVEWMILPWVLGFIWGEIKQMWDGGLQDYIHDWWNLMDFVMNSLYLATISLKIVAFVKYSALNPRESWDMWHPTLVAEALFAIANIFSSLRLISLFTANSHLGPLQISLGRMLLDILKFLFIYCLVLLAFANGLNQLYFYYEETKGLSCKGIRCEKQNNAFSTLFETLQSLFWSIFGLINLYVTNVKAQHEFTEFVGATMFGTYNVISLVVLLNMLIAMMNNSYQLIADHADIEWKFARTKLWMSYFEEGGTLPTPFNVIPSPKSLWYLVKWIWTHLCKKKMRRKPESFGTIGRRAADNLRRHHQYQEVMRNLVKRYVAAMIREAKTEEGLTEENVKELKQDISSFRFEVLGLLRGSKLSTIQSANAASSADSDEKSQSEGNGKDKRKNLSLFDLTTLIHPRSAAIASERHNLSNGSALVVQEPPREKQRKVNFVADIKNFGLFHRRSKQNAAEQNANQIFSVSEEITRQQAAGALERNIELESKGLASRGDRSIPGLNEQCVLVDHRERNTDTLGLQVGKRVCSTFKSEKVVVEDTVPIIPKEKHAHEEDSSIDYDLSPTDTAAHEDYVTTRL
The assay can be described thus: mouse TRPC4 channel activators, dose response, cell-based, HEK293 TRPC4/mu-opioid, Fluo-4 calcium (AID 434937). Type of assay: functional.

Assay [2] concerns the target T2, Lysosomal acid glucosylceramidase (Homo sapiens, UniProt P04062).
T2 sequence (P04062 whole entry): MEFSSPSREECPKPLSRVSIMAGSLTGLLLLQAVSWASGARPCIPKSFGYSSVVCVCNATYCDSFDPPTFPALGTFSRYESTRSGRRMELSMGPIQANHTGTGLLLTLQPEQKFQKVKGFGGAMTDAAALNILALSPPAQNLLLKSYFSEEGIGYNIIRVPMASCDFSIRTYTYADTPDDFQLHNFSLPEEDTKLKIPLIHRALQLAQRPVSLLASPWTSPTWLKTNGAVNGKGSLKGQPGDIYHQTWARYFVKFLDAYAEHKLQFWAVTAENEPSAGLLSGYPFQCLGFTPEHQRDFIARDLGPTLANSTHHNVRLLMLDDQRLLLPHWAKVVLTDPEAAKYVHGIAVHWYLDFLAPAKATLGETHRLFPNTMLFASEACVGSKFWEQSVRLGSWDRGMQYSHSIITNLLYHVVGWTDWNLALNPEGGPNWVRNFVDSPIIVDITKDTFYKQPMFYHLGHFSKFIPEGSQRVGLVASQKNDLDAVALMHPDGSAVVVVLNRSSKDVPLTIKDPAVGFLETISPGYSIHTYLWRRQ
Description: Dose response cell-based high throughput screening assay to identify enhancers of beta-glucosidase activity. [Related pubchem assays: 784 ]. In kind it is functional.

Assay [3] concerns the target T3, High affinity choline transporter 1 (Homo sapiens, UniProt Q9GZV3).
T3 sequence (Q9GZV3 whole entry): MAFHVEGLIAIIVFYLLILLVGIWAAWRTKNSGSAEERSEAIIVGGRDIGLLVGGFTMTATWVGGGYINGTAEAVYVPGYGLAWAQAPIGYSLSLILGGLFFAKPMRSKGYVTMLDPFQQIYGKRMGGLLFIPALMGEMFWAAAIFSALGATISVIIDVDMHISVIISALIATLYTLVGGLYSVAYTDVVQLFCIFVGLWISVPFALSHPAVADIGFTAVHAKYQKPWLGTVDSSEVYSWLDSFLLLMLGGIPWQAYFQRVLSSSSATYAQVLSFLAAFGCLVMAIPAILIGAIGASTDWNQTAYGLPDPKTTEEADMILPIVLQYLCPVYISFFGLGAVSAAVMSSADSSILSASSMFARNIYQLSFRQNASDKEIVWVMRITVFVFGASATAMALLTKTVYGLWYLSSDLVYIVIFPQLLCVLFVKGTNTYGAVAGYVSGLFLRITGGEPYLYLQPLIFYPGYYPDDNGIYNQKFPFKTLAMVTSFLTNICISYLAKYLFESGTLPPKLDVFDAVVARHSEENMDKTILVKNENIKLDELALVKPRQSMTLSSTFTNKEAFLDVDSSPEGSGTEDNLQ
Description: CHT inhibitors, dose response, cell-based, 5-point CRC, membrane potential dye (AID 504840). Type of assay: functional.

Assay [4] concerns Streptococcus sp. 'group A'. The assay can be described thus: growth inhibition of control SK(-) GAS strain, dose response, counter-screen for streptokinase expression inhibitor project, luminescence, kanamycin, BacTiterGlo, confirmation (AID 1900). In kind it is functional, organism-based.
Assay [5] relates to Vero. The assay can be described thus: cells. In kind it is functional. The note with it: Chlorocebus sabaeus.
The test system of assay [6] is Streptococcus. The assay can be described thus: Group A Streptococcus viability loss, dose response, counter-screen for streptokinase expression inhibitor project, luminescence, BacTiterGlo (AID 1915).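 Note: potency for reduction of bacterial viability or growth.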 Type of assay: functional, organism-based.
Assay [7] concerns Vero. Description: cells. In kind it is functional, cell-based. The conditions noted are these: Chlorocebus sabaeus.
In assay [8] the target is T4, Protein RecA (Mycobacterium tuberculosis, UniProt P9WHJ3).
T4 sequence (P9WHJ3 whole entry): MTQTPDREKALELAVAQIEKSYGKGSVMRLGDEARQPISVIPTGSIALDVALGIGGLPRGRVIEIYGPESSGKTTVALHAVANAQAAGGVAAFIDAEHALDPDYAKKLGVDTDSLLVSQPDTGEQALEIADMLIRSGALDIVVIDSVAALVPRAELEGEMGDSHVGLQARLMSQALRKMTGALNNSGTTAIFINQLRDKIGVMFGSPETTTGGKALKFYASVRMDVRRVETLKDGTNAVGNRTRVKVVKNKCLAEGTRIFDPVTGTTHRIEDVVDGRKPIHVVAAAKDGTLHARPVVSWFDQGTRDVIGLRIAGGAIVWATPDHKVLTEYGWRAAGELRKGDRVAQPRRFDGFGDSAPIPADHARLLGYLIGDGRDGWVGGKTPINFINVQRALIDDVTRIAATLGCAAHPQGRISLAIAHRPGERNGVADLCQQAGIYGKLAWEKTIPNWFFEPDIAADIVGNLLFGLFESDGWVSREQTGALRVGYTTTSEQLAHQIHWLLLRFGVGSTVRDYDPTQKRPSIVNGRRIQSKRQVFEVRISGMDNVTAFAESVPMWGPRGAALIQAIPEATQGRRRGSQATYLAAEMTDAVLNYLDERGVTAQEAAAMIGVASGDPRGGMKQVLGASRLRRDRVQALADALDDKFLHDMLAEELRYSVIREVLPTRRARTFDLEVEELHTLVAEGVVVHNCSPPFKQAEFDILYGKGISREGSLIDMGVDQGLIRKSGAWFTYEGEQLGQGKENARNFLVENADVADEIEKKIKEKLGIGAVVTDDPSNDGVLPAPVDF
The assay can be described thus: Fluorescence Cell-Free Homogeneous Dose Retest to Identify Inhibitors of RecA-Intein Splicing Activity. [Related pubchem assays (depositor defined):AID2097, AID2223, AID489010, AID492950]. Type of assay: functional.

In assay [9] the target is T5, Microphthalmia-associated transcription factor (Homo sapiens, UniProt O75030).
T5 sequence (O75030 whole entry): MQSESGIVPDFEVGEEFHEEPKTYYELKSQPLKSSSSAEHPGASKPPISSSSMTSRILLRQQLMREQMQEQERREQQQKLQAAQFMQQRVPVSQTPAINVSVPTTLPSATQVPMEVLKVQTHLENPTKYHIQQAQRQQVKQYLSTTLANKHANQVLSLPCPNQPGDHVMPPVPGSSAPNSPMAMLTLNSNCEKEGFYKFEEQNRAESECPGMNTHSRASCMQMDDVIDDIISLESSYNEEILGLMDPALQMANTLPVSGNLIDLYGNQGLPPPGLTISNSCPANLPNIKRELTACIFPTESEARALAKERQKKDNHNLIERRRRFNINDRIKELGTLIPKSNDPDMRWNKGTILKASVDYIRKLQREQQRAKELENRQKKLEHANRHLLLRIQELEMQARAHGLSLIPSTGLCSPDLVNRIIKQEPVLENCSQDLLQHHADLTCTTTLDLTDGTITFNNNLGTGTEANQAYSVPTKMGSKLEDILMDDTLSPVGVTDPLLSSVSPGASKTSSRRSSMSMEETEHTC
The assay can be described thus: TRPM1 promoter luciferase signal decrease, dose response, MITF inhibitor project, cell-based, SK-MEL-5, cherry-picked, set 3 (AID 493073).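 Note: SK-MEL-5 melanoma cells with luciferase driven by the MITF target TRPM1 promoter.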 Type of assay: functional.

Assay [10] has as its target T6, Replicative DNA helicase DnaB (Mycobacterium tuberculosis, UniProt P9WMR3).
T6 sequence (P9WMR3 whole entry): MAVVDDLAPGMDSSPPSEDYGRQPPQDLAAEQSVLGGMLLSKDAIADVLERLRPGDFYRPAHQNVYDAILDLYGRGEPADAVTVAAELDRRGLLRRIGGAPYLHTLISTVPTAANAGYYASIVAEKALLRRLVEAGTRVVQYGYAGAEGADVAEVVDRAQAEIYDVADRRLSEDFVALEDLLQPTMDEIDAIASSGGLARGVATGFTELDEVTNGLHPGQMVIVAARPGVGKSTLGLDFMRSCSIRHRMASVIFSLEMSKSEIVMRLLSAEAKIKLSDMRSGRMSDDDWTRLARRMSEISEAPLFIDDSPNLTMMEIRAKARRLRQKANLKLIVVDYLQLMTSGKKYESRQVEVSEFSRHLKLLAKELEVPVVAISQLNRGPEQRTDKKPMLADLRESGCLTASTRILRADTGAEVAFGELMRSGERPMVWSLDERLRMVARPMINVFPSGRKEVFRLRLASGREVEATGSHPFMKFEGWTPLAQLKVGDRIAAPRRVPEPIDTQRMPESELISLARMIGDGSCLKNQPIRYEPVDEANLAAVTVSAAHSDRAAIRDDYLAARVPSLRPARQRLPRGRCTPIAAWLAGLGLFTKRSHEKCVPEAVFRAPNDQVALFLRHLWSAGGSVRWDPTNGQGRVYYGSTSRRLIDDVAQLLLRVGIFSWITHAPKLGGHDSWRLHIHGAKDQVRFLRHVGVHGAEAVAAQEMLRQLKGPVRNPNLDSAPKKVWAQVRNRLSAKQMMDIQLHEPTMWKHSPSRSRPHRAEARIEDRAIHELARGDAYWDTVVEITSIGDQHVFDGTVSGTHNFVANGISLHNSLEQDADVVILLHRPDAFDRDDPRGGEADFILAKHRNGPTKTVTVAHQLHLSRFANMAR
Description: DnaB intein splicing inhibitors, dose response, biochemical, cell-free fluorescence (AID 449749). In kind it is functional.

This note sets out measurements from ChEMBL document CHEMBL1201862, “PubChem BioAssay data set” (2004).

Calls of active or inactive are those of the source.

With `CCOC(=O)C1(c2ccccc2)CCN(CCC(=O)Nc2ccccc2OC)CC1`, in assay [1], the EC50 was 1.88 µM (active).

For `CCn1c(CCNC(=O)c2ccc(Cl)cc2)nnc1SCC(=O)NC1CCCC1`, the EC50 in [2] was > 50 µM (not active).

With `Cc1ccc2c(c1)[C@H]1OCC[C@H]1[C@@H](c1ccncc1)N2`, in [2], the EC50 is > 10 µM (not active).

Regarding `COc1ccc2c(c1O)[C@]13CCN(C)[C@H](C2)[C@@H]1CCC(=O)C3`, in assay [1], the EC50 is 0.0427 µM (active).

As to `N=C(N)Nc1nc(C2COc3ccccc3O2)cs1` (configuration not stated), the half-inhibitory concentration (IC50) in assay [3] was 12.6 µM (active).

For `CCN1CCN(c2nc(-c3cccnc3)nc3ccccc23)CC1`, the EC50 in [2] is > 50 µM (not active).

Turning to `CN1CCN(C(=O)CCCN2C(=O)/C(=C/c3ccccc3)SC2=S)CC1`, the IC50 in assay [3] is 13.5 µM (active).

Turning to `Cc1onc(-c2ccccc2)c1C(=O)NNC(=S)NC(=O)c1ccc(Cl)cc1Cl`, the EC50 was 0.441 µM (active) in assay [4], 1.8 µM (active) in assay [6] and 1.88 µM (active) in [1]. Further, in assay [5], the CC50 is > 25 µM (active). Also, in assay [7], the IC50 is 22.7 µM (active).

Turning to `CCN(Cc1ccc(OC)c(F)c1)C(=O)CCl`, in assay [8], the EC50 was 5.37 µM (active). Also, the values for the AC50 in assay [9] and in [10] were 3.36 µM (active) and 162 µM (active), respectively.

In the case of `CCOC(=O)c1cc(NC(=O)c2ccoc2C)cc(C(=O)OCC)c1`, the IC50 in [3] was 14.5 µM (active).

In the case of `Cc1oc(-c2ccccc2)cc1C(=O)Nc1cccc(/C=C\C(=O)O)c1`, the IC50 in [3] is 11.2 µM (active).
